Reference: ChEMBL document CHEMBL1156441, “Mechanism of inactivation of plasminogen activator inhibitor-1 by a small molecule inhibitor” (J Biol Chem, 2007)

What was measured:
Design in all cases: scale not given: the % may be the effect or the level left
Homo sapiens [1] = organism: Homo sapiens; experiment: Inhibition of human non-glycosylated PAI1 R76A mutant using urokinase type plasminogen activator substrate assessed as change in IC50 value relative to wild type by direct chromogenic assay
Homo sapiens [2] = organism: Homo sapiens; experiment: Inhibition of human non-glycosylated PAI1 Y79A mutant using urokinase type plasminogen activator substrate assessed as change in IC50 value relative to wild type by direct chromogenic assay
Homo sapiens [3] = organism: Homo sapiens; experiment: Inhibition of human non-glycosylated PAI1 K80A mutant using urokinase type plasminogen activator substrate assessed as change in IC50 value relative to wild type by direct chromogenic assay
Homo sapiens [4] = organism: Homo sapiens; experiment: Inhibition of human non-glycosylated PAI1 T93A mutant using urokinase type plasminogen activator substrate assessed as change in IC50 value relative to wild type by direct chromogenic assay
Homo sapiens [5] = organism: Homo sapiens; experiment: Inhibition of human non-glycosylated PAI1 T94A mutant using urokinase type plasminogen activator substrate assessed as change in IC50 value relative to wild type by direct chromogenic assay
Homo sapiens [6] = organism: Homo sapiens; experiment: Inhibition of human non-glycosylated PAI1 D95A mutant using urokinase type plasminogen activator substrate assessed as change in IC50 value relative to wild type by direct chromogenic assay
Homo sapiens [7] = organism: Homo sapiens; experiment: Inhibition of human non-glycosylated PAI1 R118A mutant using urokinase type plasminogen activator substrate assessed as change in IC50 value relative to wild type by direct chromogenic assay
Homo sapiens [8] = organism: Homo sapiens; experiment: Inhibition of human non-glycosylated PAI1 T120A mutant using urokinase type plasminogen activator substrate assessed as change in IC50 value relative to wild type by direct chromogenic assay
Homo sapiens [9] = organism: Homo sapiens; experiment: Inhibition of human non-glycosylated PAI1 K122A mutant using urokinase type plasminogen activator substrate assessed as change in IC50 value relative to wild type by direct chromogenic assay
Homo sapiens [10] = organism: Homo sapiens; experiment: Inhibition of human non-glycosylated PAI1 F114A mutant using urokinase type plasminogen activator substrate assessed as change in IC50 value relative to wild type by direct chromogenic assay
Homo sapiens [11] = organism: Homo sapiens; experiment: Inhibition of human non-glycosylated PAI1 H143A mutant using urokinase type plasminogen activator substrate assessed as change in IC50 value relative to wild type by direct chromogenic assay

Q: What does the source list for `O=C(O)C(=O)c1cn(Cc2ccccc2)c2ccc(-c3ccc(OC(F)(F)F)cc3)cc12`?
A: Activity (Homo sapiens [1]): 48%; Activity (Homo sapiens [2]): 28%; Activity (Homo sapiens [3]): 14%; Activity (Homo sapiens [4]): 27%; Activity (Homo sapiens [5]): 54%; Activity (Homo sapiens [6]): 58%; Activity (Homo sapiens [7]): 7%; Activity (Homo sapiens [8]): -21%; Activity (Homo sapiens [9]): -25%; Activity (Homo sapiens [10]): 3%; Activity (Homo sapiens [11]): -14%
